pIC50: −log10 of the molar value.
Experiments:
[1] = molecular target: T1, Insulin-like growth factor 1 receptor (Homo sapiens, UniProt P08069); experiment: Inhibition of human GST-rTEV-tagged IGF1R (957 to 1367 residues) expressed in baculovirus infected insect Sf9 cells assessed as decrease in biotin-aminohexyl-AEEEEYMMMMAKKKK-NH2 phosphorylation after 1 hr by fluorometer
Insulin receptor [2] = molecular target: T2, Insulin receptor (Homo sapiens, UniProt P06213); experiment: Inhibition of human GST-rTEV-tagged insulin receptor (979 to 1382 residues) expressed in baculovirus infected insect Sf9 cells assessed as decrease in biotin-aminohexyl-AEEEEYMMMMAKKKK-NH2 phosphorylation after 1 hr by fluorometer
Insulin receptor [3] = molecular target: T2, Insulin receptor; experiment: Inhibition of insulin-induced human insulin receptor autophosphorylation expressed in mouse NIH-3T3 cells preincubated for 2 hrs followed by insulin induction measured after 15 mins by DELFIA; type: cell-based, NIH3T3
[4] = molecular target: T1, Insulin-like growth factor 1 receptor; experiment: Inhibition of IGF1-induced human IGF1R autophosphorylation expressed in mouse NIH-3T3 cells preincubated for 2 hrs followed by IGF-1 induction measured after 15 mins by DELFIA; type: cell-based, NIH3T3
[5] = Toxicity in nude mouse allografted with mouse LISN cells assessed as body weight loss at 50 to 100 mg/kg, qd for 21 days measured during compound dosing; type: organism-based; settings: 504 h
[6] = Toxicity in nude mouse allografted with mouse LISN cells assessed as body weight loss at 30 mg/kg, qd for 21 days measured during compound dosing relative to control; type: organism-based; settings: in vivo, 504 h
[7] = Toxicity in nude mouse allografted with mouse LISN cells assessed as body weight loss at 60 mg/kg, qd for 21 days measured during compound dosing relative to control; type: organism-based; settings: in vivo, 504 h
[8] = Cytotoxicity against HOS cells after 3 days by InCell analyser assay; type: functional, cell-based; settings: Homo sapiens, 72 h
[9] = Cytotoxicity against human SH4 cells after 3 days by InCell analyser assay; type: functional, cell-based; settings: SH-4, 72 h
[10] = Cytotoxicity against human C-4I cells after 3 days by InCell analyser assay; type: functional, cell-based; settings: 72 h
[11] = Cytotoxicity against human AGS cells after 3 days by InCell analyser assay; type: functional, cell-based; settings: 72 h
[12] = Cytotoxicity against human MT3 cells after 3 days by InCell analyser assay; type: functional, cell-based; settings: MT-3, 72 h
[13] = Cytotoxicity against human BC1 cells after 3 days by InCell analyser assay; type: functional, cell-based; settings: BC1, 72 h
[14] = Cytotoxicity against human DB cells after 3 days by InCell analyser assay; type: functional, cell-based; settings: 72 h
[15] = Cytotoxicity against human 5637 cells after 3 days by InCell analyser assay; type: functional, cell-based; settings: Homo sapiens, 5637, 72 h
[16] = Cytotoxicity against human DK-MG cells after 3 days by InCell analyser assay; type: functional, cell-based; settings: 72 h
[17] = Cytotoxicity against human BC3 cells after 3 days by InCell analyser assay; type: functional, cell-based; settings: BC-3, 72 h
[18] = Cytotoxicity against human MJ cells after 3 days by InCell analyser assay; type: functional, cell-based; settings: 72 h
[19] = Cytotoxicity against human GCT cells after 3 days by InCell analyser assay; type: functional, cell-based; settings: 72 h
[20] = Cytotoxicity against human H4 cells after 3 days by InCell analyser assay; type: functional, cell-based; settings: H4, 72 h
[21] = Cytotoxicity against human KLE cells after 3 days by InCell analyser assay; type: functional, cell-based; settings: 72 h
[22] = Cytotoxicity against human U266B1 cells after 3 days by InCell analyser assay; type: functional, cell-based; settings: U-266, 72 h
[23] = Cytotoxicity against human C3A cells after 3 days by InCell analyser assay; type: functional, cell-based; settings: 72 h
[24] = Cytotoxicity against human JAR cells after 3 days by InCell analyser assay; type: functional, cell-based; settings: 72 h
[25] = Cytotoxicity against human NALM1 cells after 3 days by InCell analyser assay; type: functional, cell-based; settings: NALM1, 72 h
[26] = Cytotoxicity against human Y79 cells after 3 days by InCell analyser assay; type: functional, cell-based; settings: Y79, 72 h
[27] = Cytotoxicity against human SCLC3 cells after 3 days by InCell analyser assay; type: functional, cell-based; settings: SCLC3, 72 h
[28] = Cytotoxicity against human RD cells after 3 days by InCell analyser assay; type: functional, cell-based; settings: 72 h
[29] = Cytotoxicity against human ES2 cells after 3 days by InCell analyser assay; type: functional, cell-based; settings: ES-2, 72 h
[30] = Cytotoxicity against human ML2 cells after 3 days by InCell analyser assay; type: functional, cell-based; settings: ML-2, 72 h
[31] = Cytotoxicity against human MX1 cells after 3 days by InCell analyser assay; type: functional, cell-based; settings: MX1, 72 h
[32] = Cytotoxicity against human HN5 cells after 3 days by InCell analyser assay; type: functional, cell-based; settings: HN5, 72 h
[33] = Cytotoxicity against human CESS cells after 3 days by InCell analyser assay; type: functional, cell-based; settings: 72 h
[34] = Cytotoxicity against human T24 cells after 3 days by InCell analyser assay; type: functional, cell-based; settings: T-24, 72 h
[35] = Cytotoxicity against human MC/CAR cells after 3 days by InCell analyser assay; type: functional, cell-based; settings: 72 h
[36] = Cytotoxicity against human A7 cells after 3 days by InCell analyser assay; type: functional, cell-based; settings: 72 h
[37] = Cytotoxicity against human HT3 cells after 3 days by InCell analyser assay; type: functional, cell-based; settings: HT-3, 72 h
[38] = Cytotoxicity against human SR cells after 3 days by InCell analyser assay; type: functional, cell-based; settings: 72 h
[39] = Cytotoxicity against human RL cells after 3 days by InCell analyser assay; type: functional, cell-based; settings: 72 h
[40] = Cytotoxicity against human BC2 cells after 3 days by InCell analyser assay; type: functional, cell-based; settings: BC-2, 72 h
[41] = Cytotoxicity against human M14 cells after 3 days by InCell analyser assay; type: functional, cell-based; settings: M14, 72 h
[42] = Cytotoxicity against human EM2 cells after 3 days by InCell analyser assay; type: functional, cell-based; settings: EM-2, 72 h
[43] = Cytotoxicity against human J82 cells after 3 days by InCell analyser assay; type: functional, cell-based; settings: J82, 72 h
[44] = Toxicity in nude mouse allografted with mouse LISN cells assessed as body weight loss at 30 to 300 mg/kg, qd for 21 days measured during compound dosing; type: organism-based; settings: 504 h

T2 sequence (P06213 28-758 limits assumed): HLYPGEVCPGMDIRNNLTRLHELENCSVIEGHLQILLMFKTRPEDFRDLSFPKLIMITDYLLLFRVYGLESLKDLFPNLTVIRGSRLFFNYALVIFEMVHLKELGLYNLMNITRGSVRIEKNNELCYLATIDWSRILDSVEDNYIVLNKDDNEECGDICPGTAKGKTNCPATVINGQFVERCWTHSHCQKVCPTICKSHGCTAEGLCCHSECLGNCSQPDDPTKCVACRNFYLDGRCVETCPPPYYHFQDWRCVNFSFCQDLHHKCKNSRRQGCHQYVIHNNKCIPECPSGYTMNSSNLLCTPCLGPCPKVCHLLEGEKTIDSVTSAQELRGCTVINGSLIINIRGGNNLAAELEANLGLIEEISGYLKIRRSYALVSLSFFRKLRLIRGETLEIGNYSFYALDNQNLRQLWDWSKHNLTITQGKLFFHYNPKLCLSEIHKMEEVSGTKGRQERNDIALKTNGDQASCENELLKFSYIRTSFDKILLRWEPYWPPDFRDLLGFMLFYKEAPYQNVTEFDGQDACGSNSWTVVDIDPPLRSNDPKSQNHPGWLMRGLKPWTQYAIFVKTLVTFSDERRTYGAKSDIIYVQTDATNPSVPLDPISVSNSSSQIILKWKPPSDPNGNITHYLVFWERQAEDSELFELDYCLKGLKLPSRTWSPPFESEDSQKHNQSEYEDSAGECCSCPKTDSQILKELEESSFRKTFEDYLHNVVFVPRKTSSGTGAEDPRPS
T2 sequence (P06213 763-1382 limits assumed): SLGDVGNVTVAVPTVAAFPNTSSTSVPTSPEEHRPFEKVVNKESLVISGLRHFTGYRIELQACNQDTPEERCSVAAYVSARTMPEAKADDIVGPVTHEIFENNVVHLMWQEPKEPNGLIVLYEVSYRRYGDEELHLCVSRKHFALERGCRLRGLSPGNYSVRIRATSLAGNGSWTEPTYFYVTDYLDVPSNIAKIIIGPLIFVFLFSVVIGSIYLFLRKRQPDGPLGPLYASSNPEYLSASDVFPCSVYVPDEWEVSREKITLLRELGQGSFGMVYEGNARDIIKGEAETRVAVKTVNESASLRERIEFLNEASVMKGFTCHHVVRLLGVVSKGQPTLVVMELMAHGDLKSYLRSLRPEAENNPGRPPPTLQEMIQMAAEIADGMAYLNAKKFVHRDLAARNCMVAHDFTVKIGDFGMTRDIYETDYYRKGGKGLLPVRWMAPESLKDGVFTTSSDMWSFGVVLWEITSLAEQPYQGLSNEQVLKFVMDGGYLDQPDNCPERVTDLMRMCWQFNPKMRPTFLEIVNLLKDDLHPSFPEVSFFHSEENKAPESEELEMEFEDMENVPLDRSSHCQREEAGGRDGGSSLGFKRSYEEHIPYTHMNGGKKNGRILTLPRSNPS

Compound: COc1cc(C2CCN(CCS(C)(=O)=O)CC2)ccc1Nc1nccc(-c2c(-c3ccc(OC)c(C(=O)Nc4c(F)cccc4F)c3)nc3ccccn23)n1
- pIC50 [1]: > 7.00
- pIC50 (Insulin receptor [2]): > 7.00

Compound: CCOc1cc(N2CCN(CCS(C)(=O)=O)CC2)c(C)cc1Nc1nccc(-c2c(-c3ccc(OC)c(C(=O)Nc4c(F)cccc4F)c3)nc3ccccn23)n1
- pIC50 [1]: > 7.00
- pIC50 (Insulin receptor [2]): > 7.00
- pIC50 (Insulin receptor [3]): > 7.00

Compound: CCOc1cc(C2CCN(CCS(C)(=O)=O)CC2)ccc1Nc1nccc(-c2c(-c3ccc(OC(C)C)c(C(=O)Nc4c(F)cccc4F)c3)nc3ccccn23)n1
- pIC50 [1]: 6.00 to 7.00
- pIC50 [4]: > 7.00
- pIC50 (Insulin receptor [2]): 6.00 to 7.00

Compound: COc1cc(N2CCC(CCS(C)(=O)=O)CC2)c(C)cc1Nc1nccc(-c2c(-c3ccc(OC)c(C(=O)Nc4c(F)cccc4F)c3)nc3cc(F)ccn23)n1
- pIC50 [1]: > 7.00
- pIC50 (Insulin receptor [2]): > 7.00
- pIC50 (Insulin receptor [3]): > 7.00

Compound: CN(C)CCOc1cccc(Nc2nccc(-c3c(-c4cccc(C(=O)Nc5c(F)cc(F)cc5F)c4)nc4ccccn34)n2)c1
- pIC50 (Insulin receptor [2]): > 7.00

Compound: CCOc1cc(N2CCC(CCS(C)(=O)=O)CC2)c(C)cc1Nc1nccc(-c2c(-c3ccc(OC)c(C(=O)Nc4c(F)cccc4F)c3)nc3ccccn23)n1
- Activity [5]: Non-Toxic

Compound: CCOc1cc(N2CCC(N3CCN(S(C)(=O)=O)CC3)CC2)c(CC)cc1Nc1nccc(-c2c(-c3ccc(OCC)c(C(=O)Nc4c(F)cccc4F)c3)nc3ccccn23)n1
- pIC50 [1]: 6.00 to 7.00
- pIC50 [4]: > 7.00
- pIC50 (Insulin receptor [2]): 6.00 to 7.00

Compound: CCc1cc(Nc2nccc(-c3c(-c4ccc(OC)c(C(=O)Nc5c(F)cccc5F)c4)nc4ccccn34)n2)c(OC)cc1N1CCC(N2CCN(S(C)(=O)=O)CC2)CC1
- Activity [6]: Non-Toxic
- Activity [7]: Non-Toxic

Compound: COc1cc(N2CCC(N3CCCCC3)CC2)ccc1Nc1nccc(-c2c(-c3cccc(C(=O)Nc4c(F)cccc4F)c3)nc3ccccn23)n1
- pIC50 [8]: > 6.00
- pIC50 [9]: 5.30 to 6.00
- pIC50 [10]: 5.30 to 6.00
- pIC50 [11]: 5.30 to 6.00
- pIC50 [12]: > 6.00
- pIC50 [13]: 5.30 to 6.00
- pIC50 [14]: 5.30 to 6.00
- pIC50 [15]: < 5.30
- pIC50 [16]: 5.30 to 6.00
- pIC50 [17]: 5.30 to 6.00
- pIC50 [18]: 5.30 to 6.00
- pIC50 [19]: 5.30 to 6.00
- pIC50 [20]: < 5.30
- pIC50 [21]: 5.30 to 6.00
- pIC50 [22]: 5.30 to 6.00
- pIC50 [23]: 5.30 to 6.00
- pIC50 [24]: 5.30 to 6.00
- pIC50 [25]: 5.30 to 6.00
- pIC50 [26]: < 5.30
- pIC50 [27]: 5.30 to 6.00
- pIC50 [28]: < 5.30
- pIC50 [29]: 5.30 to 6.00
- pIC50 [30]: < 5.30
- pIC50 [31]: 5.30 to 6.00
- pIC50 [32]: 5.30 to 6.00
- pIC50 [33]: < 5.30
- pIC50 [34]: < 5.30
- pIC50 [35]: 5.30 to 6.00
- pIC50 [36]: 5.30 to 6.00
- pIC50 [37]: < 5.30
- pIC50 [38]: 5.30 to 6.00
- pIC50 [39]: 5.30 to 6.00
- pIC50 [40]: 5.30 to 6.00
- pIC50 [41]: 5.30 to 6.00
- pIC50 [42]: < 5.30
- pIC50 [43]: 5.30 to 6.00

Compound: COc1cc(N2CCC(N3CCN(S(C)(=O)=O)CC3)CC2)ccc1Nc1nccc(-c2c(-c3cccc(C(=O)Nc4c(F)cccc4F)c3)nc3ccccn23)n1
- Activity [44]: Non-Toxic
